Where two headings read alike, the source gives them in different places.
Tests used:
[1] = Plasma drug concentrations by LC tandem MS; type: in vivo, human; details: for concentration at 4 h: human, plasma, 4 hours after dosing, single dose (rofecoxib 25 mg, celecoxib 200 mg)
PGI2 biosynthesis = assay: Urinary 2,3-dinor-6-keto PGF1α (PGI-M) in volunteers; type: in vivo, human; details: single dose (rofecoxib 25 mg, celecoxib 200 mg), 4 hours
From the text: (§1) Written informed consent was obtained from all study volunteers.
(§2) The coefficients of variation for both assays were <10%.
(§3) All variables were log transformed to approximate normality. Three extreme outlying datapoints were removed.

[2] = patients receiving rofecoxib (25 mg/day), as early as one month; cited from earlier work
COX-1 = COX-1 (Homo sapiens, UniProt P23219); details: in vivo
Chain of COX-1 (P23219 24-599): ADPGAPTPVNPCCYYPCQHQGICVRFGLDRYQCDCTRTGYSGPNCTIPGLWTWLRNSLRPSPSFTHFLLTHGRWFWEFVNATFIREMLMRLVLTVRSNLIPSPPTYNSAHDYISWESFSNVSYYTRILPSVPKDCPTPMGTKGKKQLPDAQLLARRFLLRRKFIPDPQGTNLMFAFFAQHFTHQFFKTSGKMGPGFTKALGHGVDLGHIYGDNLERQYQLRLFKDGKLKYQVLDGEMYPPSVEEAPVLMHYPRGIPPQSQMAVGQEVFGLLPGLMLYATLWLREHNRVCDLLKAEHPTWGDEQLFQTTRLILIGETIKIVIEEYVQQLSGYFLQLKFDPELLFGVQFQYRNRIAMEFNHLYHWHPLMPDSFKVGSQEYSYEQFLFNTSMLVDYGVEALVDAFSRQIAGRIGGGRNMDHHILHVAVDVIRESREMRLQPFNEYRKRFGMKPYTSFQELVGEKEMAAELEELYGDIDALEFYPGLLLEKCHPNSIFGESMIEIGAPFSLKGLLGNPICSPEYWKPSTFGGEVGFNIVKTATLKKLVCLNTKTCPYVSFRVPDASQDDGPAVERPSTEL
Protocol: (§4) Study Design: This randomized, double-blind, placebo-controlled protocol was approved by the Institutional Review Board of the University of Pennsylvania Health System and by the Advisory Council of the General Clinical Research Center (University of Pennsylvania, Philadelphia). Written informed consent was obtained from all study volunteers. […] Routine hematology, biochemistry, and urinalysis were assessed at time of screening and at 24 hours after administration of the drugs on completion of the study.
(§5) Measurements were performed immediately before the administration of drug (0 hrs) and 4 hours thereafter. […] A subset of the volunteers (n=5) progressed through the entire protocol on five occasions, each separated by two weeks, to assess intraindividual variability in drug response in five replicates.
(§6) Statistical analysis: The primary response variables were: i) ex vivo COX-2 inhibition, expressed as the ratio of postdrug to predrug plasma PGE2; ii) ex vivo COX-1 inhibition, expressed as the ratio of postdrug to predrug serum TxB2; iii) urinary PGI-M inhibition, expressed as the ratio of concentration post drug to post placebo administration; iv) urinary Tx-M inhibition, expressed as the ratio of concentration post drug to post placebo administration; and v) plasma drug concentrations four hours post drug administration. […]

COX-2 = COX-2 (Homo sapiens, UniProt P35354); details: in vivo
Chain of COX-2 (P35354 18-604): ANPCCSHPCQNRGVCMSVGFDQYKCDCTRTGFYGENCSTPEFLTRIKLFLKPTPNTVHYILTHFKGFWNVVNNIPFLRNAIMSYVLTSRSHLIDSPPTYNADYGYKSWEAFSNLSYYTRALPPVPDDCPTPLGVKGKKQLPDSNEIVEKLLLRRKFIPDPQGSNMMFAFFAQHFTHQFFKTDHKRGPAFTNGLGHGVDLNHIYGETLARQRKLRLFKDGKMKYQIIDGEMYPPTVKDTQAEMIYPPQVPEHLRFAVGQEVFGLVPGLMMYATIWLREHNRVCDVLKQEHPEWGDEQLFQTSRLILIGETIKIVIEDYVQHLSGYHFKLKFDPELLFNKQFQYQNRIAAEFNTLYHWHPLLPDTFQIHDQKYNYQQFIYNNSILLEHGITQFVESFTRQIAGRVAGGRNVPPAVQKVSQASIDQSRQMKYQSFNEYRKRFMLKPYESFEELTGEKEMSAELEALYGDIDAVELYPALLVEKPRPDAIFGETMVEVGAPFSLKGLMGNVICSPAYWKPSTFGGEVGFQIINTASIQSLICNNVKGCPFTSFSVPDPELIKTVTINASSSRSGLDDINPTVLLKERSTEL
Protocol: as §4, §5, §6

TxA2 formation = assay: Urinary 11-dehydro TxB2 (Tx-M) in volunteers; type: in vivo, human
From the text: as §1, §2, §3

## CS(=O)(=O)c1ccc(C2=C(c3ccccc3)C(=O)OC2)cc1 [rofecoxib]
[1]; read-out: plasma drug concentration, median
  concentration at 4 h: 215 ng/mL
[1]; read-out: plasma drug concentration, range
  concentration at 4 h: 115 to 658 ng/mL
[1]; rofecoxib 25 mg, 4 hours
  drop in plasma concentration per unit increase in BMI: about 2%
PGI2 biosynthesis
  urinary PGI-M compared to placebo: depressed urinary PGI-M
[2]
  elevation of blood pressure: 3-4 mm Hg
COX-1
  COX-1 derived serum TxB2: failed to inhibit significantly
COX-2
  degree of inhibition of COX-2 dependent PGE2 formation ex vivo: 44.8%
TxA2 formation; rofecoxib 25 mg
  COX-1 inhibition in vivo (urinary Tx-M) in Pro17Leu variant of COX-1: absence of COX-1 inhibition in vivo
TxA2 formation; single dose (rofecoxib 25 mg, celecoxib 200 mg), 4 hours
  excretion of urinary Tx-M compared to placebo: not excretion of urinary Tx-M

Reference: patent US7833795B2, “Assessment of cardiovascular risk using isoprostane biomarkers and COX-2 selective inhibitors” (The Trustees of the University of Pennsylvania, priority 2004, dated 2010)
